{
  "source": "patent US20230302032A1",
  "about": "“ANTIBACTERIAL COMPOSITIONS AND METHODS FOR FABRICATING THEREOF” (Harrow IP LLC, priority 2020, published 2023)",
  "key": {"[1]": {"test": "HPLC potency and stability of stored antibiotic solutions;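 also: stored antibiotic compositions assayed by HPLC for remaining potency, USP acceptance requires at least 90% of nominal concentration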", "settings": "for Stability of the composition (assay %): composition of Example 2 (with L-glycine)", "protocol": "The final product was tested chromatographically (HPLC) for potency and stability after being stored for 6 months. […] According to the USP rules, at least a 90% concentration is required for the product to be acceptable.\nThe stability of this composition was then monitored for a period of 180 days."}},
  "note": "Where two headings read alike, the source gives them in different places.",
  "data": [
    {"molecule": "Vancomycin", "values": [
      {"measurement": "Stability result, % (HPLC potency)", "setting": "[1]; Tobramycin-Vancomycin System, aqueous solution, 1.5 % tobramycin, 5% vancomycin, no lidocaine, stored at −4° C. in a dark place, Day 0", "result": 108, "unit": "%"},
      {"measurement": "Stability result, % (HPLC potency)", "setting": "[1]; Tobramycin-Vancomycin System, aqueous solution, 1.5 % tobramycin, 5% vancomycin, no lidocaine, stored at −4° C. in a dark place, Day 30", "result": 108, "unit": "%"},
      {"measurement": "Stability result, % (HPLC potency)", "setting": "[1]; Tobramycin-Vancomycin System, aqueous solution, 1.5 % tobramycin, 5% vancomycin, no lidocaine, stored at −4° C. in a dark place, Day 60", "result": 106, "unit": "%"},
      {"measurement": "Stability result, % (HPLC potency)", "setting": "[1]; Tobramycin-Vancomycin System, aqueous solution, 1.5 % tobramycin, 5% vancomycin, no lidocaine, stored at −4° C. in a dark place, Day 90", "result": 107, "unit": "%"},
      {"measurement": "Stability result, % (HPLC potency)", "setting": "[1]; Tobramycin-Vancomycin System, aqueous solution, 1.5 % tobramycin, 5% vancomycin, no lidocaine, stored at −4° C. in a dark place, Day 120", "result": 91, "unit": "%"},
      {"measurement": "Stability result, % (HPLC potency)", "setting": "[1]; Tobramycin-Vancomycin System, aqueous solution, 1.5 % tobramycin, 5% vancomycin, no lidocaine, stored at −4° C. in a dark place, Day 150", "result": 83, "unit": "%"},
      {"measurement": "Stability result, % (HPLC potency)", "setting": "[1]; Tobramycin-Vancomycin System, aqueous solution, 1.5 % tobramycin, 5% vancomycin, no lidocaine, stored at −4° C. in a dark place, Day 180", "result": 81, "unit": "%"},
      {"measurement": "Stability result, % (HPLC potency)", "setting": "[1]; Vancomycin alone, 5.0 % aqueous solution, stored in a dark place at room temperature, Day 0", "result": 113, "unit": "%"},
      {"measurement": "Stability result, % (HPLC potency)", "setting": "[1]; Vancomycin alone, 5.0 % aqueous solution, stored in a dark place at room temperature, Day 30", "result": 106, "unit": "%"},
      {"measurement": "Stability result, % (HPLC potency)", "setting": "[1]; Vancomycin alone, 5.0 % aqueous solution, stored in a dark place at room temperature, Day 60", "result": 111, "unit": "%"},
      {"measurement": "Stability result, % (HPLC potency)", "setting": "[1]; Vancomycin alone, 5.0 % aqueous solution, stored in a dark place at room temperature, Day 90", "result": 106, "unit": "%"},
      {"measurement": "concentration of vancomycin", "setting": "[1]; after 120 days storage, system having no lidocaine (Table 4)", "result": "≤ 91", "unit": "%"},
      {"measurement": "Stability of the composition (assay %)", "setting": "[1]; Day 0", "result": 104.9, "unit": "%"},
      {"measurement": "Stability of the composition (assay %)", "setting": "[1]; Day 30", "result": 104.0, "unit": "%"},
      {"measurement": "Stability of the composition (assay %)", "setting": "[1]; Day 60", "result": 99.1, "unit": "%"},
      {"measurement": "Stability of the composition (assay %)", "setting": "[1]; Day 90", "result": 99.8, "unit": "%"},
      {"measurement": "Stability of the composition (assay %)", "setting": "[1]; Day 180", "result": 100.5, "unit": "%"},
      {"measurement": "storage stability alone", "setting": "[1]; each antibiotic alone, 180 days (Tables 2 and 3)", "result": "withstood the storage for 180 days very well"},
      {"measurement": "concentration of vancomycin", "setting": "[1]; same storage times (120 days and after), lidocaine present in the composition (Table 1)", "result": "at least 108%"}
    ]},
    {"molecule": "NC[C@H]1O[C@H](O[C@H]2[C@H](O)[C@@H](O[C@H]3O[C@H](CO)[C@@H](O)[C@H](N)[C@H]3O)[C@H](N)C[C@@H]2N)[C@H](N)C[C@@H]1O", "note": "[Tobramycin, (2S,3R,4S,5S,6R)-4-amino-2-{[(1S,2S,3R,4S,6R)-4,6-diamino-3-{[(2R,3R,5S,6R)-3-amino-6-(aminomethyl)-5-hydroxyoxan-2-yl]oxy}-2-hydroxycyclohexyl]oxy}-6-(hydroxymethyl)oxane-3,5-diol]", "values": [
      {"measurement": "Stability of the composition (assay %)", "setting": "0 days", "result": 102.3, "unit": "%"},
      {"measurement": "Stability of the composition (assay %)", "setting": "30 days", "result": 106.9, "unit": "%"},
      {"measurement": "Stability of the composition (assay %)", "setting": "60 days", "result": 98.9, "unit": "%"},
      {"measurement": "Stability of the composition (assay %)", "setting": "90 days", "result": 97.6, "unit": "%"},
      {"measurement": "Stability of the composition (assay %)", "setting": "180 days", "result": 97.9, "unit": "%"},
      {"measurement": "storage stability alone", "setting": "180 days", "result": "withstood the storage for 180 days very well"}
    ]}
  ]
}
